Reference: ChEMBL document CHEMBL2158001, “Lead optimization studies towards the discovery of novel carbamates as potent AChE inhibitors for the potential treatment of Alzheimer's disease” (Bioorg Med Chem, 2012)

Target: T1, Acetylcholinesterase (Mus musculus, UniProt P21836)
T1 sequence (P21836 whole entry): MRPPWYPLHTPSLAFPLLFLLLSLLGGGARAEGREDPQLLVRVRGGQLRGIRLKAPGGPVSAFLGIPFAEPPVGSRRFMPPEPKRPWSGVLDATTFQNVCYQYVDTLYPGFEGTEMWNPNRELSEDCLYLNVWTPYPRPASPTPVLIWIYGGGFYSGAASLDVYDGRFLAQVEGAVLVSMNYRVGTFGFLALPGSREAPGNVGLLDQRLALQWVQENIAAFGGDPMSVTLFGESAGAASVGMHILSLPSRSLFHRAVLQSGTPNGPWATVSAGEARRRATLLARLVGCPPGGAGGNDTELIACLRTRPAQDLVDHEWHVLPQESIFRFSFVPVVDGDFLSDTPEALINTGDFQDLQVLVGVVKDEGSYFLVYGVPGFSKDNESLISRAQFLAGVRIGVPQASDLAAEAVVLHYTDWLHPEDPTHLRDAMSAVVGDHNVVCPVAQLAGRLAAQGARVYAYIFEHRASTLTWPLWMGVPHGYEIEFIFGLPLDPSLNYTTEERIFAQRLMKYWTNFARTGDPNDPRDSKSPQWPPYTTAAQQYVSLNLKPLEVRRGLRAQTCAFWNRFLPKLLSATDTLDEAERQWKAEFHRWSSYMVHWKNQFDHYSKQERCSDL
Description: Inhibition of Swiss albino mouse RBC AChE after 30 mins by Ellman method

Structure (SMILES) | IC50 [µM]
O=C(Nc1ccc(Cl)cc1)Oc1ccc2c(c1)CCCN2Cc1ccc(Cl)cc1Cl | 3480
O=C(Nc1cccc(Cl)c1)Oc1ccc2c(c1)CCCN2Cc1ccc(Cl)cc1Cl | 211
O=C(Nc1cccc(Br)c1)Oc1ccc2c(c1)CCCN2Cc1ccc(Cl)cc1Cl | 140
Cc1ccccc1NC(=O)Oc1ccc2c(c1)CCCN2Cc1ccccc1 | 14.3
O=C(Nc1ccccc1Cl)Oc1ccc2c(c1)CCCN2Cc1ccc(Cl)cc1Cl | 11.9
CCCCCCCCNC(=O)Oc1ccc2c(c1)CCCN2Cc1ccc(Cl)cc1Cl | > 10000
Cc1ccccc1NC(=O)Oc1ccc2c(c1)CCCN2Cc1ccc(Cl)cc1Cl | 2.57
COc1ccccc1NC(=O)Oc1ccc2c(c1)CCCN2Cc1ccc(Cl)cc1Cl | 13.8
CCCCCCNC(=O)Oc1ccc2c(c1)CCCN2Cc1ccc(Cl)cc1Cl | 14.1
CCCCCCCNC(=O)Oc1ccc2c(c1)CCCN2Cc1ccc(Cl)cc1Cl | 105
Cc1cccc(NC(=O)Oc2ccc3c(c2)CCCN3Cc2ccc(Cl)cc2Cl)c1 | 0.7
O=C(Nc1ccccc1F)Oc1ccc2c(c1)CCCN2Cc1ccc(Cl)cc1Cl | 2.56
Cc1ccc(NC(=O)Oc2ccc3c(c2)CCCN3Cc2ccc(Cl)cc2Cl)cc1 | 851
O=C(Nc1ccc(F)cc1)Oc1ccc2c(c1)CCCN2Cc1ccc(Cl)cc1Cl | 89.4
Cc1cccc(NC(=O)Oc2ccc3c(c2)CCCN3Cc2ccccc2)c1 | 60.2
